The supplement of paper PMC10307832

Experiments:
Assay in all cases: relative viability (nuclei count vs DMSO), 5 days (fraction); higher = more cells survive
BEN = system: BEN
Procedure, shortened: (§1)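 Values are medians from duplicate plates. Each reflects relative viability, defined as the nuclei count of treated wells over that of vehicle wells. Lung cancer cell lines in 1536-well plates were pin-tool dosed one day after seeding with one drug alone or with a fixed anchor-drug dose plus five library-drug doses (not always all listed) in √10 steps, then fixed, stained and imaged at 4× after 5 days.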

EPLC-272H = system: EPLC-272H
Procedure, shortened: as §1

HCC-827 = system: HCC-827
Procedure, shortened: as §1

HOP-62 = system: HOP-62
Procedure, shortened: as §1

LU99A = system: LU99A
Procedure, shortened: as §1

NCI-H1355 = system: NCI-H1355
Procedure, shortened: as §1

NCI-H1666 = system: NCI-H1666
Procedure, shortened: as §1

NCI-H1792 = system: NCI-H1792
Procedure, shortened: as §1

NCI-H1975 = system: NCI-H1975
Procedure, shortened: as §1

NCI-H2170 = system: NCI-H2170
Procedure, shortened: as §1

NCI-H23 = system: NCI-H23
Procedure, shortened: as §1

NCI-H2405 = system: NCI-H2405
Procedure, shortened: as §1

NCI-H3122 = system: NCI-H3122
Procedure, shortened: as §1

NCI-H322M = system: NCI-H322M
Procedure, shortened: as §1

NCI-H358 = system: NCI-H358
Procedure, shortened: as §1

NCI-H520 = system: NCI-H520
Procedure, shortened: as §1

NCI-H596 = system: NCI-H596
Procedure, shortened: as §1

NCI-H647 = system: NCI-H647
Procedure, shortened: as §1

NCI-H727 = system: NCI-H727
Procedure, shortened: as §1

NCI-H838 = system: NCI-H838
Procedure, shortened: as §1

PC-14 = system: PC-14
Procedure, shortened: as §1

SW 900 = system: SW 900
Procedure, shortened: as §1

UMC-11 = system: UMC-11
Procedure, shortened: as §1

`CCCCCCCCCCCC1=C(O)C(=O)C=C(O)C1=O` [Embelin] + CC(=O)Nc1cccc(-n2c(=O)n(C3CC3)c(=O)c3c(Nc4ccc(I)cc4F)n(C)c(=O)c(C)c32)c1 [Trametinib] (partner 0.02 µM) was tested, and the relative viability (BEN; first compound 0.08 µM) was 1.11, the relative viability (BEN; first compound 0.8 µM) was 1.16 and the relative viability (BEN; first compound 2.53 µM) was 0.966. It also gave a relative viability (BEN; first compound 8 µM) of 0.865, a relative viability (EPLC-272H; first compound 0.08 µM) of 0.315 and a relative viability (EPLC-272H; first compound 0.8 µM) of 0.282. The relative viability (EPLC-272H; first compound 2.53 µM) was 0.296, the relative viability (EPLC-272H; first compound 8 µM) was 0.253 and the relative viability (HCC-827; first compound 0.08 µM) was 0.535. It also gave a relative viability (HCC-827; first compound 0.8 µM) of 0.588, a relative viability (HCC-827; first compound 2.53 µM) of 0.506 and a relative viability (HCC-827; first compound 8 µM) of 0.487. For the same molecule, the relative viability (HOP-62; first compound 0.08 µM) was 0.402, the relative viability (HOP-62; first compound 0.8 µM) was 0.472 and the relative viability (HOP-62; first compound 2.53 µM) was 0.476. The relative viability (HOP-62; first compound 8 µM) was 0.379, the relative viability (LU99A; first compound 0.08 µM) was 0.631 and the relative viability (LU99A; first compound 0.8 µM) was 0.596. The relative viability (LU99A; first compound 2.53 µM) was 0.561, the relative viability (LU99A; first compound 8 µM) was 0.526 and the relative viability (NCI-H1355; first compound 0.08 µM) was 0.409. It also gave a relative viability (NCI-H1355; first compound 0.8 µM) of 0.443, a relative viability (NCI-H1355; first compound 2.53 µM) of 0.392 and a relative viability (NCI-H1355; first compound 8 µM) of 0.418. It also gave a relative viability (NCI-H1666; first compound 0.08 µM) of 0.813, a relative viability (NCI-H1666; first compound 0.8 µM) of 0.824 and a relative viability (NCI-H1666; first compound 2.53 µM) of 0.838. The relative viability (NCI-H1666; first compound 8 µM) was 0.91, the relative viability (NCI-H1792; first compound 0.08 µM) was 0.452 and the relative viability (NCI-H1792; first compound 0.8 µM) was 0.539. The relative viability (NCI-H1792; first compound 2.53 µM) was 0.532, the relative viability (NCI-H1792; first compound 8 µM) was 0.459 and the relative viability (NCI-H1975; first compound 0.08 µM) was 0.38. It also gave a relative viability (NCI-H1975; first compound 0.8 µM) of 0.379, a relative viability (NCI-H1975; first compound 2.53 µM) of 0.376 and a relative viability (NCI-H1975; first compound 8 µM) of 0.369. For the same molecule, the relative viability (NCI-H2170; first compound 0.08 µM) was 0.946, the relative viability (NCI-H2170; first compound 0.8 µM) was 0.877 and the relative viability (NCI-H2170; first compound 2.53 µM) was 1.11. It also gave a relative viability (NCI-H2170; first compound 8 µM) of 0.9, a relative viability (NCI-H23; first compound 0.08 µM) of 0.344 and a relative viability (NCI-H23; first compound 0.8 µM) of 0.476. For the same molecule, the relative viability (NCI-H23; first compound 2.53 µM) was 0.437, the relative viability (NCI-H23; first compound 8 µM) was 0.396 and the relative viability (NCI-H2405; first compound 0.08 µM) was 0.664. It also gave a relative viability (NCI-H2405; first compound 0.8 µM) of 0.778, a relative viability (NCI-H2405; first compound 2.53 µM) of 0.638 and a relative viability (NCI-H2405; first compound 8 µM) of 0.626. It also gave a relative viability (NCI-H3122; first compound 0.08 µM) of 0.251, a relative viability (NCI-H3122; first compound 0.8 µM) of 0.253 and a relative viability (NCI-H3122; first compound 2.53 µM) of 0.238. For the same molecule, the relative viability (NCI-H3122; first compound 8 µM) was 0.263, the relative viability (NCI-H322M; first compound 0.08 µM) was 0.53 and the relative viability (NCI-H322M; first compound 0.8 µM) was 0.543. It also gave a relative viability (NCI-H322M; first compound 2.53 µM) of 0.516, a relative viability (NCI-H322M; first compound 8 µM) of 0.49 and a relative viability (NCI-H358; first compound 0.08 µM) of 0.137. The relative viability (NCI-H358; first compound 0.8 µM) was 0.154, the relative viability (NCI-H358; first compound 2.53 µM) was 0.127 and the relative viability (NCI-H358; first compound 8 µM) was 0.14. For the same molecule, the relative viability (NCI-H520; first compound 0.08 µM) was 0.689, the relative viability (NCI-H520; first compound 0.8 µM) was 0.72 and the relative viability (NCI-H520; first compound 2.53 µM) was 0.95. For the same molecule, the relative viability (NCI-H520; first compound 8 µM) was 0.705, the relative viability (NCI-H596; first compound 0.08 µM) was 0.832 and the relative viability (NCI-H596; first compound 0.8 µM) was 0.796. It also gave a relative viability (NCI-H596; first compound 2.53 µM) of 0.795, a relative viability (NCI-H596; first compound 8 µM) of 0.748 and a relative viability (NCI-H647; first compound 0.08 µM) of 0.489. The relative viability (NCI-H647; first compound 0.8 µM) was 0.528, the relative viability (NCI-H647; first compound 2.53 µM) was 0.638 and the relative viability (NCI-H647; first compound 8 µM) was 0.446. It also gave a relative viability (NCI-H727; first compound 0.08 µM) of 0.4, a relative viability (NCI-H727; first compound 0.8 µM) of 0.394 and a relative viability (NCI-H727; first compound 2.53 µM) of 0.39. The relative viability (NCI-H727; first compound 8 µM) was 0.423, the relative viability (NCI-H838; first compound 0.08 µM) was 0.523 and the relative viability (NCI-H838; first compound 0.8 µM) was 0.705. The relative viability (NCI-H838; first compound 2.53 µM) was 0.571, the relative viability (NCI-H838; first compound 8 µM) was 0.511 and the relative viability (PC-14; first compound 0.08 µM) was 0.728. The relative viability (PC-14; first compound 0.8 µM) was 0.839, the relative viability (PC-14; first compound 2.53 µM) was 0.982 and the relative viability (PC-14; first compound 8 µM) was 0.724. The relative viability (SW 900; first compound 0.08 µM) was 0.779, the relative viability (SW 900; first compound 0.8 µM) was 0.962 and the relative viability (SW 900; first compound 2.53 µM) was 0.781. It also gave a relative viability (SW 900; first compound 8 µM) of 1.15, a relative viability (UMC-11; first compound 0.08 µM) of 0.698 and a relative viability (UMC-11; first compound 0.8 µM) of 0.869. The relative viability (UMC-11; first compound 2.53 µM) was 0.758 and the relative viability (UMC-11; first compound 8 µM) was 0.593.
